Source: US20260022142A1, “MACROCYCLIC IMMUNOMODULATORS” (Bristol-Myers Squibb Company, priority 2022, published 2026)
Read-outs that look alike come from different tables or passages of the source. Bridge positions count the residues as written; N and C are the ends. Square brackets hold non-standard residues; d marks the D form. Peptide text beside a SMILES is read from it. * marks the point of attachment. Phe(4-COOH) = N[C@@H](Cc1ccc(C(=O)O)cc1)C(=O)O; Bip = N[C@@H](Cc1ccc(-c2ccccc2)cc1)C(=O)O; Morpholine(3S-CO) = O=C(O)[C@@H]1COCCN1; 4Pal = N[C@@H](Cc1ccncc1)C(=O)O; Cha = N[C@@H](CC1CCCCC1)C(=O)O; Cit = NC(=O)NCCC[C@H](N)C(=O)O; 3Abz = Nc1cccc(C(=O)O)c1; 4Abz = Nc1ccc(C(=O)O)cc1; Carboxymethyl = O=C(O)C*; Orn = NCCC[C@H](N)C(=O)O; Aun = NCCCCCCCCCCC(=O)O; Dab = NCC[C@H](N)C(=O)O; Dap = NC[C@H](N)C(=O)O; AEEA = NCCOCCOCC(=O)O

Biological target: T1, PD-1/PD-L1 interaction (PE-labeled human PD-L1-Ig binding to Jurkat cell line over-expressing human PD-1) (Homo sapiens, UniProt Q15116)
T1 construct: expressed in transfected cells; host or cells: Jurkat
Assay: Jurkat-PD-1 Cell Binding High-Content Screening Assay (CBA)
Format: cell-based
Conditions: PE-labeled PD-L1-Ig 20 nM final
Summary of the method: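 Human PD-L1-Ig carrying a covalent PE label on its Ig tag serves as the probe, applied at 20 nM final to compound-treated (2 h, 37° C) Jurkat-hPD-1 cells in medium with 10% fetal calf serum. After one hour, fixation and nuclear staining precede high-content image analysis.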

[1] = Jurkat cell line over-expressing human PD-1, read-out: Jurkat hPD1-PDL1 IC50

T1 sequence (Q15116 25-288): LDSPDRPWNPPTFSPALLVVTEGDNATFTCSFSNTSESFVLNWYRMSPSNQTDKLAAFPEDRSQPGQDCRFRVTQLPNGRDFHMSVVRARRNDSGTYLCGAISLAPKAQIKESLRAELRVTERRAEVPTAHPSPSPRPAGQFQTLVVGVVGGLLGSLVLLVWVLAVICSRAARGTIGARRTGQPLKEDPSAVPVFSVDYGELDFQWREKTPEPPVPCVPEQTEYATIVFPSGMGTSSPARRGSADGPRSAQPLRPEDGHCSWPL

| Compound | IC50 [1] [µM] | IC50 (Jurkat hPD1-PDL1 IC50, Jurkat cell line over-expressing human PD-1) [µM] |
| --- | --- | --- |
| CC(C)C[C@@H]1NC(=O)[C@H](Cc2c[nH]c3ccccc23)NC(=O)[C@H](CC(=O)O)NC(=O)[C@H](Cc2ccncc2)NC(=O)[C@H](Cc2ccc(OCC(=O)O)cc2)NC(=O)CSC[C@@H](C(=O)Nc2ccc(C(=O)NCCCCCCCCCCC(=O)O)cc2)NC(=O)[C@H](CCCN)NC(=O)[C@H](C(C)C)NC(=O)[C@H](CC2CCCCC2)NC(=O)[C@H](CCN)NC(=O)[C@@H](CC(C)C)NC(=O)[C@H](CCCN)NC(=O)[C@H](C(C)C)NC(=O)[C@H](Cc2ccc(-c3ccccc3)cc2)NC1=O [Compound 1226] ({CH2CO}-Y(Carboxymethyl)[4Pal]DWL[Bip]V[Orn][dL][Dab][Cha]V[Orn]C[4Abz][Aun]-OH; thioether N-14) | 0.277 | – |
| CC(C)C[C@@H]1NC(=O)[C@H](Cc2c[nH]c3ccccc23)NC(=O)[C@H](CC(=O)O)NC(=O)[C@H](Cc2ccncc2)NC(=O)[C@H](Cc2ccc(OCC(=O)O)cc2)NC(=O)CSC[C@@H](C(=O)N2CCOC[C@H]2C(=O)NCCCCCCCCCCC(=O)O)NC(=O)[C@H](CCCNC(N)=O)NC(=O)[C@H](C(C)C)NC(=O)[C@H](CC2CCCCC2)NC(=O)[C@H](CCN)NC(=O)[C@@H](CC(C)C)NC(=O)[C@H](CCCN)NC(=O)[C@H](C(C)C)NC(=O)[C@H](Cc2ccc(-c3ccccc3)cc2)NC1=O [Compound 1227] ({CH2CO}-Y(Carboxymethyl)[4Pal]DWL[Bip]V[Orn][dL][Dab][Cha]V[Cit]C[Morpholine(3S-CO)][Aun]-OH; thioether N-14) | 0.304 | – |
| CC(C)C[C@@H]1NC(=O)[C@H](Cc2c[nH]c3ccccc23)NC(=O)[C@H](CC(=O)O)NC(=O)[C@H](Cc2ccncc2)NC(=O)[C@H](Cc2ccc(OCC(=O)O)cc2)NC(=O)CSC[C@@H](C(=O)Nc2cccc(C(=O)NCCCCCCCCCCC(=O)O)c2)NC(=O)[C@H](CCN)NC(=O)[C@H](C(C)C)NC(=O)[C@H](CC2CCCCC2)NC(=O)[C@H](CCN)NC(=O)[C@@H](CC(C)C)NC(=O)[C@H](CCCN)NC(=O)[C@H](C(C)C)NC(=O)[C@H](Cc2ccc(-c3ccccc3)cc2)NC1=O [Compound 1228] ({CH2CO}-Y(Carboxymethyl)[4Pal]DWL[Bip]V[Orn][dL][Dab][Cha]V[Dab]C[3Abz][Aun]-OH; thioether N-14) | 0.307 | – |
| CC(C)C[C@@H]1NC(=O)[C@H](Cc2c[nH]c3ccccc23)NC(=O)[C@H](CC(=O)O)NC(=O)[C@H](Cc2ccncc2)NC(=O)[C@H](Cc2ccc(OCC(=O)O)cc2)NC(=O)CSC[C@@H](C(=O)Nc2ccc(C(=O)NCCCCCCCCCCC(=O)O)cc2)NC(=O)[C@H](CCN)NC(=O)[C@H](C(C)C)NC(=O)[C@H](CC2CCCCC2)NC(=O)[C@H](CCN)NC(=O)[C@@H](CC(C)C)NC(=O)[C@H](CCCN)NC(=O)[C@H](C(C)C)NC(=O)[C@H](Cc2ccc(-c3ccccc3)cc2)NC1=O [Compound 1229] ({CH2CO}-Y(Carboxymethyl)[4Pal]DWL[Bip]V[Orn][dL][Dab][Cha]V[Dab]C[4Abz][Aun]-OH; thioether N-14) | 0.518 | – |
| CC(C)C[C@@H]1NC(=O)[C@H](Cc2c[nH]c3ccccc23)NC(=O)[C@H](CC(=O)O)NC(=O)[C@H](Cc2ccncc2)NC(=O)[C@H](Cc2ccc(OCC(=O)O)cc2)NC(=O)CSC[C@@H](C(=O)Nc2ccc(C(=O)NCCCCCCCCCCC(=O)O)cc2)NC(=O)[C@H](CCCNC(=N)N)NC(=O)[C@H](C(C)C)NC(=O)[C@H](CC2CCCCC2)NC(=O)[C@H](CCN)NC(=O)[C@@H](CC(C)C)NC(=O)[C@H](CCCN)NC(=O)[C@H](C(C)C)NC(=O)[C@H](Cc2ccc(-c3ccccc3)cc2)NC1=O [Compound 1230] ({CH2CO}-Y(Carboxymethyl)[4Pal]DWL[Bip]V[Orn][dL][Dab][Cha]VRC[4Abz][Aun]-OH; thioether N-14) | – | 0.537 |
| CC(C)C[C@@H]1NC(=O)[C@H](Cc2c[nH]c3ccccc23)NC(=O)[C@H](CC(=O)O)NC(=O)[C@H](Cc2ccc(C(=O)O)cc2)NC(=O)[C@H](Cc2ccc(OCC(=O)O)cc2)NC(=O)CSC[C@@H](C(=O)N[C@@H](CN)C(=O)NCCCCCCCCCCC(=O)O)NC(=O)[C@H](CCCNC(N)=O)NC(=O)[C@H](C(C)C)NC(=O)[C@H](CC2CCCCC2)NC(=O)[C@H](CCN)NC(=O)[C@@H](CC(C)C)NC(=O)[C@H](CCCN)NC(=O)[C@H](Cc2ccc(O)cc2)NC(=O)[C@H](Cc2ccc(-c3ccccc3)cc2)NC1=O [Compound 1233] ({CH2CO}-Y(Carboxymethyl)[Phe(4-COOH)]DWL[Bip]Y[Orn][dL][Dab][Cha]V[Cit]C[Dap][Aun]-OH; thioether N-14) | 0.0221 | – |
| CC(C)C[C@@H]1NC(=O)[C@H](Cc2c[nH]c3ccccc23)NC(=O)[C@H](CC(=O)O)NC(=O)[C@H](Cc2ccc(C(=O)O)cc2)NC(=O)[C@H](Cc2ccc(OCC(=O)O)cc2)NC(=O)CSC[C@@H](C(=O)N[C@@H](CCN)C(=O)NCCCCCCCCCCC(=O)O)NC(=O)[C@H](CCCNC(N)=O)NC(=O)[C@H](C(C)C)NC(=O)[C@H](CC2CCCCC2)NC(=O)[C@H](CCN)NC(=O)[C@@H](CC(C)C)NC(=O)[C@H](CCCN)NC(=O)[C@H](Cc2ccc(O)cc2)NC(=O)[C@H](Cc2ccc(-c3ccccc3)cc2)NC1=O [Compound 1234] ({CH2CO}-Y(Carboxymethyl)[Phe(4-COOH)]DWL[Bip]Y[Orn][dL][Dab][Cha]V[Cit]C[Dab][Aun]-OH; thioether N-14) | 0.0398 | – |
| CC(C)C[C@@H]1NC(=O)[C@H](Cc2c[nH]c3ccccc23)NC(=O)[C@H](CC(=O)O)NC(=O)[C@H](Cc2ccc(C(=O)O)cc2)NC(=O)[C@H](Cc2ccc(OCC(=O)O)cc2)NC(=O)CSC[C@@H](C(=O)N[C@@H](CCCN)C(=O)NCCCCCCCCCCC(=O)O)NC(=O)[C@H](CCCNC(N)=O)NC(=O)[C@H](C(C)C)NC(=O)[C@H](CC2CCCCC2)NC(=O)[C@H](CCN)NC(=O)[C@@H](CC(C)C)NC(=O)[C@H](CCCN)NC(=O)[C@H](Cc2ccc(O)cc2)NC(=O)[C@H](Cc2ccc(-c3ccccc3)cc2)NC1=O [Compound 1235] ({CH2CO}-Y(Carboxymethyl)[Phe(4-COOH)]DWL[Bip]Y[Orn][dL][Dab][Cha]V[Cit]C[Orn][Aun]-OH; thioether N-14) | 0.0321 | – |
| CC(C)C[C@@H]1NC(=O)[C@H](Cc2c[nH]c3ccccc23)NC(=O)[C@H](CC(=O)O)NC(=O)[C@H](Cc2ccc(C(=O)O)cc2)NC(=O)[C@H](Cc2ccc(OCC(=O)O)cc2)NC(=O)CSC[C@@H](C(=O)N[C@@H](CCCCN)C(=O)NCCCCCCCCCCC(=O)O)NC(=O)[C@H](CCCNC(N)=O)NC(=O)[C@H](C(C)C)NC(=O)[C@H](CC2CCCCC2)NC(=O)[C@H](CCN)NC(=O)[C@@H](CC(C)C)NC(=O)[C@H](CCCN)NC(=O)[C@H](Cc2ccc(O)cc2)NC(=O)[C@H](Cc2ccc(-c3ccccc3)cc2)NC1=O [Compound 1236] ({CH2CO}-Y(Carboxymethyl)[Phe(4-COOH)]DWL[Bip]Y[Orn][dL][Dab][Cha]V[Cit]CK[Aun]-OH; thioether N-14) | 0.0357 | – |
| CC(C)C[C@@H]1NC(=O)[C@H](Cc2c[nH]c3ccccc23)NC(=O)[C@H](CC(=O)O)NC(=O)[C@H](Cc2ccc(C(=O)O)cc2)NC(=O)[C@H](Cc2ccc(OCC(=O)O)cc2)NC(=O)CSC[C@@H](C(=O)N[C@@H](CCCNC(=N)N)C(=O)NCCCCCCCCCCC(=O)O)NC(=O)[C@H](CCCNC(N)=O)NC(=O)[C@H](C(C)C)NC(=O)[C@H](CC2CCCCC2)NC(=O)[C@H](CCN)NC(=O)[C@@H](CC(C)C)NC(=O)[C@H](CCCN)NC(=O)[C@H](Cc2ccc(O)cc2)NC(=O)[C@H](Cc2ccc(-c3ccccc3)cc2)NC1=O [Compound 1237] ({CH2CO}-Y(Carboxymethyl)[Phe(4-COOH)]DWL[Bip]Y[Orn][dL][Dab][Cha]V[Cit]CR[Aun]-OH; thioether N-14) | 0.0706 | – |
| CC(C)C[C@@H]1NC(=O)[C@H](Cc2c[nH]c3ccccc23)NC(=O)[C@H](CC(=O)O)NC(=O)[C@H](Cc2ccc(C(=O)O)cc2)NC(=O)[C@H](Cc2ccc(OCC(=O)O)cc2)NC(=O)CSC[C@@H](C(=O)NCCOCCOCC(=O)NCCCCCCCCCCC(=O)O)NC(=O)[C@H](CN)NC(=O)[C@H](C(C)C)NC(=O)[C@H](CC2CCCCC2)NC(=O)[C@H](CCN)NC(=O)[C@@H](CC(C)C)NC(=O)[C@H](CCCN)NC(=O)[C@H](Cc2ccc(O)cc2)NC(=O)[C@H](Cc2ccc(-c3ccccc3)cc2)NC1=O [Compound 1238] ({CH2CO}-Y(Carboxymethyl)[Phe(4-COOH)]DWL[Bip]Y[Orn][dL][Dab][Cha]V[Dap]C[AEEA][Aun]-OH; thioether N-14) | 0.0393 | – |
| CC(C)C[C@@H]1NC(=O)[C@H](Cc2c[nH]c3ccccc23)NC(=O)[C@H](CC(=O)O)NC(=O)[C@H](Cc2ccc(C(=O)O)cc2)NC(=O)[C@H](Cc2ccc(OCC(=O)O)cc2)NC(=O)CSC[C@@H](C(=O)NCCOCCOCC(=O)NCCCCCCCCCCC(=O)O)NC(=O)[C@H](CCN)NC(=O)[C@H](C(C)C)NC(=O)[C@H](CC2CCCCC2)NC(=O)[C@H](CCN)NC(=O)[C@@H](CC(C)C)NC(=O)[C@H](CCCN)NC(=O)[C@H](Cc2ccc(O)cc2)NC(=O)[C@H](Cc2ccc(-c3ccccc3)cc2)NC1=O [Compound 1239] ({CH2CO}-Y(Carboxymethyl)[Phe(4-COOH)]DWL[Bip]Y[Orn][dL][Dab][Cha]V[Dab]C[AEEA][Aun]-OH; thioether N-14) | 0.0302 | – |
| CC(C)C[C@@H]1NC(=O)[C@H](Cc2c[nH]c3ccccc23)NC(=O)[C@H](CC(=O)O)NC(=O)[C@H](Cc2ccc(C(=O)O)cc2)NC(=O)[C@H](Cc2ccc(OCC(=O)O)cc2)NC(=O)CSC[C@@H](C(=O)NCCOCCOCC(=O)NCCCCCCCCCCC(=O)O)NC(=O)[C@H](CCCN)NC(=O)[C@H](C(C)C)NC(=O)[C@H](CC2CCCCC2)NC(=O)[C@H](CCN)NC(=O)[C@@H](CC(C)C)NC(=O)[C@H](CCCN)NC(=O)[C@H](Cc2ccc(O)cc2)NC(=O)[C@H](Cc2ccc(-c3ccccc3)cc2)NC1=O [Compound 1240] ({CH2CO}-Y(Carboxymethyl)[Phe(4-COOH)]DWL[Bip]Y[Orn][dL][Dab][Cha]V[Orn]C[AEEA][Aun]-OH; thioether N-14) | 0.0206 | – |
